# Values of other authors, collected in PMC5278571, “Optimal doses of caspofungin during continuous venovenous hemodiafiltration in critically ill patients” (Critical Care, 2017).
# Key:
# Candida = conditions: MIC taken for the PK/PD target calculation; cited from earlier work
# Experimental: (§1) Taking into account a MIC of 0.1 mg/L [4], and using the target pharmacokinetics/pharmacodynamics (PK/PD) described for micafungin, we would have reac ...
# [1] = system: Candida and Aspergillus spp., including Candida parapsilosis; conditions: published MIC90s; cited from earlier work
# Experimental: as §1
smiles,measurement,setting,value
CC[C@H](C)C[C@H](C)CCCCCCCCC(=O)N[C@H]1C[C@@H](O)[C@@H](NCCN)NC(=O)[C@@H]2[C@@H](O)CCN2C(=O)[C@H]([C@H](O)CCN)NC(=O)[C@H]([C@H](O)[C@@H](O)c2ccc(O)cc2)NC(=O)[C@@H]2C[C@@H](O)CN2C(=O)[C@H]([C@@H](C)O)NC1=O [caspofungin],MIC,Candida,0.1 µg/mL
same,MIC90,[1],2 µg/mL
